Consider one compound from PMC10251509, “Ultrafast Fragment Screening Using Photo-Hyperpolarized (CIDNP) NMR” (Journal of the American Chemical Society, 2023).

This experiment deals with T1, PDZ2 domain of human tyrosine phosphatase 1E (hPTP1E) (Homo sapiens, UniProt Q12923).
T1 construct: the PDZ2 domain of human tyrosine phosphatase 1E (hPTP1E); polyhistidine (N); made in house; host or cells: Escherichia coli BL21 (DE3)
T1 sequence (Q12923 1368-1452 limits assumed): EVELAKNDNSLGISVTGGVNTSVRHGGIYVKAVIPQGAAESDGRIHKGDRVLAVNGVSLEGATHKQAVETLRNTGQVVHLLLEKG
In words: [15N,1H]-HSQC chemical shift perturbation / titration of peptides with PDZ2 domain. The format is binding. The settings on record: [15N,1H]-HSQC-based titration series, calculated by Titan. An excerpt: To establish a proof of concept, we decided to design and study peptides that bind to the PDZ2 domain of human tyrosine phosphatase comprising a tryptophane at the N-terminus of the peptides for detection by photo-CIDNP since tryptophane is known to be well polarized in the presence of fluorescein.[10],[25] The positive and negative control peptides (i.e., WVSAV and WEKLQT, respectively) were then checked in their binding capacity using [^15N,^1H]-HSQC experiments (Figure 2A,C).
Figure 2 Peptide binding studies of peptides to the PDZ2 domain of the human tyrosine phosphatase by standard chemical shift perturbation 2D NMR experiments and photo-CIDNP 1D ^1H NMR. (A) and (C) 2D [^15N,^1H]-HSQC spectra of the ^15N-labeled PDZ2 domain in the absence (black) and presence (green) of the peptide WVSAV (A) or WEKLQT (C), the experiments were recorded each within ca. 30 min. Photo-CIDNP ^1H 1D NMR spectra of the tryptophane aromatic resonances of (B) WVSAV and (D) WEKLQT in the absence (black lines) and presence (green lines) of the PDZ2 domain of the human tyrosine phosphatase, the experiments were recorded each within ca. 5 s. All of the 1D NMR spectra are single-scan experiments and were recorded with 100 μM peptide, ±100 μM PDZ2 domain at 298 K. The hyperpolarization was triggered by 4 s of light irradiation (450 nm, 1 W) in the presence of 25 μM fluorescein in photo-CIDNP buffer. […]

Where a SMILES comes first, the peptide text is derived from it.

Turning to `CC(C)[C@H](NC(=O)[C@H](C)NC(=O)[C@H](CO)NC(=O)[C@@H](NC(=O)[C@@H](N)Cc1c[nH]c2ccccc12)C(C)C)C(=O)O` [WVSAV] (H-WVSAV-OH), the equilibrium dissociation constant (Kd) is 111 ± 3.3 µM.
